Assay results published in patent US20060166984A1, “Amino substituted benzo(hetero)cyclic derivatives” (priority 2003, published 2006).
Like-named read-outs stand apart in the source and are kept apart here.

Assays:
[1] = system: Green Peach Aphid (myzus persicae); experiment: Green Peach Aphid foliar dip test on pepper plants; type: in vivo; conditions: 120 h, read-out: mortality in comparison with untreated controls
Protocol: Green Peach Aphid (myzus persicae)
(§1) The active compounds were formulated in 50:50 acetone:water and 100 ppm Kinetic® surfactant.
Pepper plants in the 2nd leaf-pair stage (variety ‘California Wonder’) were infested with approximately 40 laboratory-reared aphids by placing infested leaf sections on top of the test plants. The leaf sections were removed after 24 hours. The leaves of the intact plants were dipped into gradient solutions of the test compound and allowed to dry. Test plants were maintained under fluorescent light (24 hour photoperiod) at about 25° C. and […] relative humidity. Aphid mortality on the treated plants, relative to mortality on check plants, was determined after 5 days.

[2] = system: Cotton Aphid (aphis gossypii); experiment: Cotton Aphid foliar dip test on cotton cotyledons; type: in vivo; conditions: 120 h, counts after 5 days, read-out: mortality in comparison with untreated controls
Description: Cotton Aphid (aphis gossypii)
The active compounds were formulated in 50:50 acetone:water and 100 ppm Kinetic® surfactant (a nonionic wetting agent which is a blend of polyalkyleneoxide modified polydimethylsiloxane and polyoxypropylene-polyoxyethylene copolymers, available from Helena Chemical Company, Memphis, Tenn. 38119, U.S.A.).
Cotton plants at the cotyledon stage (one plant per pot) were infested by placing a heavily infested leaf from the main colony on top of each cotyledon. The aphids were allowed to transfer to the host plant overnight, and the leaf used to transfer the aphids was removed. The cotyledons were dipped in the test solution and allowed to dry. After 5 days, mortality counts were made.

[3] = system: Twospotted Spider Mite (Tetranychus urticae); experiment: Twospotted Spider Mite dip test on lima bean plants; type: in vivo; conditions: 120 h, read-out: mortality compared to untreated controls
Protocol: Twospotted Spider Mite (Tetranychus urticae)
Lima bean plants in the 1st leaf-pair stage (variety ‘Henderson’) were infested with approximately 100 laboratory-reared mites per leaf by placing infested leaf sections on top of the test plants. The leaf sections were removed after 24 hours. The foliage of the intact plants was dipped into gradient solutions of the test compounds. Mite mortality was determined after 5 days.

Bean Aphid (Aphis fabae) = experiment: Bean Aphid dip test on nasturtium plants; type: in vivo; conditions: 72 h, after 3 days, read-out: mortality compared to untreated controls
Protocol: Nasturtium plants in the 1st leaf-pair stage (variety ‘Mixed Jewle’ were infested with approximately 25 laboratory-reared aphids by placing infested cut plants on top of the test plants. The cut plants were removed after 24 hours. The foliage and stem of the test plants were dipped into gradient solutions of the test compound. Aphid mortality was determined after 3 days.

[4] = system: Silverleaf whitefly (bemisia argentifolii); experiment: Silverleaf whitefly test on dipped cotton cotyledons; type: in vivo; conditions: 72 h, whitefly adults on cotton, 3 days after treatment, read-out: mortality compared to untreated controls
Protocol: Silverleaf whitefly (bemisia argentifolii)
as §1
Selected cotton plants were grown to the cotyledon state (one plant per pot). The cotyledons were dipped into the test solution to provide complete coverage of the foliage and placed in a well-vented area to dry. Each pot with treated seedling was placed in a plastic cup and 10 to 12 whitefly adults (approximately 3-5 day old) were introduced. The cups were covered with a re-usable screened lid (150 micron mesh polyester screen PeCap from Tetko Inc). Test plants were maintained in the holding room at about 25° C. and 20-40% relative humidity for 3 days avoiding direct exposure to the fluorescent light (24 hour photoperiod) to prevent trapping of heat inside the cup.
Mortality was assessed 3 days after treatment of the plants.

[5] = 300 ppm, green peach aphid on pepper, after 5 days
[6] = 300 ppm, spider mite on lima bean, after 5 days

SMILES | melting point [°C] | mortality at 300 ppm [1, 5] [%] | mortality at 300 ppm [2] [%] | mortality at 300 ppm [3, 6] [%] | further results
CN1CCN(C2=Cc3ccccc3C2)CC1 | 158 to 160 | – | – | – | –
CCN1CCN(C2=Cc3ccccc3C2)CC1 | 124 to 126 | – | – | – | –
CCN1CCN(C2=CCCc3ccccc32)CC1 | 68 to 70 | – | – | – | –
CN1CCN([C@@H]2C[C@@H](c3ccc(F)cc3)c3ccc(Cl)cc32)CC1 (relative stereo) [Compound 61, Trans-1-[3-(4-fluorophenyl)-6-chloro-2,3-dihydro-1H-inden-1-yl]4-methylpiperazine] | – | > 85 | > 85 | – | –
CN1CCN(c2cccc3ccccc23)CC1 [Compound 5, 1-Methyl-4-(1-naphthyl)-piperazine] | – | – | – | – | mortality at 300 ppm [1]: > 85%
CN1CCN(c2nccc3ccccc23)CC1 [Compound 12, 1-(1-Isoquinolinyl)-4-methylpiperazine] | – | – | – | – | mortality at 300 ppm [3]: > 70%
CN1CCN(C2CCc3ccccc3C2)CC1 (stereo not shown) [Compound 14, 1-(1,2,3,4-Tetrahydro-2-naphthalenyl)-4-methylpiperazine] | – | – | – | > 70 | –
CN1CCN(C2CCSc3ccc(Cl)cc32)CC1 (stereo not shown) [Compound 16, 1-(6-Chloro-3,4-dihydro-2H-thiochromen-4-yl)-4-methylpiperazine] | – | > 85 | > 85 | – | mortality at 300 ppm (Bean Aphid (Aphis fabae)): > 70%
CN1CCN(C2CCCc3ccc(F)cc32)CC1 (stereo not shown) [Compound 20, 1-(7-Fluoro-1,2,3,4-tetrahydro-1-naphthalenyl)-4-methylpiperazine] | – | > 85 | > 85 | > 70 | mortality at 300 ppm [4]: > 95%
CN1CCN(C2=CCCc3ccc(F)cc32)CC1 [Compound 21, 1-(7-Fluoro-3,4-dihydro-1-naphthalenyl)-4-methylpiperazine] | – | – | – | > 70 | –
